Test results as given in US5480869A, “Anti-inflammatory peptide analogs and treatment to inhibit vascular leakage in injured tissues” (The Regents of the University of California, priority 1993, dated 1996).
Where “and” joins values, the source holds several entries; their conditions need not be identical. Equal entries are not always repeated. Where a SMILES comes first, the peptide text is derived from it. [ ]: non-standard residue; d: D form.

System: rat's hind paw heat-edema
Assay: heat-induced paw edema in pentobarbital-anesthetized rat (58° C. water, 1 minute)
Type: in vivo
Details: for anti-inflammatory activity, result in words: heat-edema, relative to saline controls; for Heat-Edema % Saline Values: ten minutes before 58° C. water for 1 minute, edema measured 30 minutes after heat
Procedure: The inventive peptides were dissolved either in saline or saline acidified with 0.1 M acetic acid and injected intravenously into a pentobarbital-anesthetized rat. The rat's hind paw was then immersed in 58°-60° C. water for 1 minute and the increase in paw weight, as an index of edema and swelling, was measured 30 minutes later. For some peptides, the ability of the substances to inhibit vascular leakage after muscle injury was also tested. Normally, the paw weight of saline-treated animals (controls) will increase by about 65-95% after heat injury. The increase in weight is relative to the contralateral non-heated paw.
In screening the bioactivity of new peptides, a dose of 5 mg/kg i.v. was initially used. In later studies, when greater activity was expected, a screening dose of 1 to 2 mg/kg i.v. was used.
Thus, each peptide was injected intravenously (at the amounts specified, usually 1 or 5 mg/kg, or by full dose-response analysis) 10 minutes (for 7/8-mers) or one hour (for 11-mers) before immersion of the right paw in 58° C. water, for 1 minute, and weights of both paws were obtained 30minutes later. To obtain statistical accuracy, four to six animals were used in each group. The % wt increase was calculated as (wt of heated paw--wt of unheated paw/wt of unheated paw)×100 and converted to % of the saline control group values, which were run concurrently.

[1] = i.y. [sic], 7/8-mers, ten minute interval between administration and 58° C. water for 1 minute, edema 30 minutes after heat, Table 3
[2] = dose 5 mg/kg i.v., N.S. = not different from saline

| Compound | ED50 (95% confidence limits) [1] | Heat-Edema % Saline Values [2] [% Saline Values] | other results |
| --- | --- | --- | --- |
| CC[C@H](C)[C@H](NC(=O)[C@H](CCCNC(=N)N)NC(=O)[C@H](CCCNC(=N)N)NC(C)=O)C(=O)N[C@H](C(=O)N[C@@H](Cc1ccc(OC)cc1)C(=O)N[C@H](C(=O)N[C@H](CC(C)C)C(N)=O)[C@@H](C)CC)[C@@H](C)CC [Composition 26] (Ac-RRIIY(Me)I[dL]-NH2) | 0.70 (0.40-1.2) mg/kg |  | anti-inflammatory activity, result in words: potent anti-inflammatory properties |
| CC[C@H](C)[C@H](NC(=O)[C@H](Cc1ccc(OC)cc1)NC(=O)[C@H](CCSC)NC(=O)[C@H](CC(C)C)NC(=O)[C@H](CCCCN)NC(=O)[C@@H](CCCNC(=N)N)NC(C)=O)C(=O)N[C@H](CC(C)C)C(N)=O [Composition 27] (Ac-[dR]KLMY(Me)I[dL]-NH2) | 0.52 (0.19-1.8) mg/kg |  |  |
| CC[C@H](C)[C@H](NC(=O)[C@@H](CCCNC(=N)N)NC(=O)[C@H](CC(C)C)NC(=O)[C@H](CC(C)C)NC(=O)[C@H](CCCCN)NC(=O)[C@@H](N)CCCNC(=N)N)C(=O)N[C@H](CC(C)C)C(N)=O [Composition 21] (HELM PEPTIDE1{R.K.L.L.[dR].I.[dL].[am]}$$$$V2.0) | 2.0 (0.80-5.0) mg/kg |  |  |
| CC[C@H](C)[C@H](NC(=O)[C@H](Cc1c[nH]c2ccccc12)NC(=O)[C@H](CCSC)NC(=O)[C@H](CC(C)C)NC(=O)[C@H](CCCCN)NC(=O)[C@@H](N)CCCNC(=N)N)C(=O)N[C@H](CC(C)C)C(N)=O [Composition 7] (HELM PEPTIDE1{R.K.L.M.W.I.[dL].[am]}$$$$V2.0) |  | 38 ± 5 |  |
| CC[C@H](C)[C@H](NC(=O)[C@H](Cc1ccc(F)cc1)NC(=O)[C@H](CC(C)C)NC(=O)[C@H](CC(C)C)NC(=O)[C@H](CCCCN)NC(=O)[C@@H](N)CCCNC(=N)N)C(=O)N[C@H](CC(C)C)C(N)=O [Composition 10] (HELM PEPTIDE1{R.K.L.L.[O=C([C@H](Cc1ccc(F)cc1)N[*:1])[*:2]].I.[dL].[am]}$$$$V2.0) |  | 54 ± 11 |  |
| CC[C@H](C)[C@H](NC(=O)[C@H](Cc1ccc(OC)cc1)NC(=O)[C@H](CCSC)NC(=O)[C@H](CC(C)C)NC(=O)[C@H](CCCCN)NC(=O)[C@H](CCCNC(=N)N)NC(=O)[C@H](Cc1ccc(OC)cc1)NC(C)=O)C(=O)N[C@H](CC(C)C)C(N)=O [Composition 29] (Ac-Y(Me)RKLMY(Me)I[dL]-NH2) | 0.22 (0.09-0.55) mg/kg |  |  |
| CC[C@H](C)[C@H](NC(=O)[C@H](Cc1ccc([N+](=O)[O-])cc1)NC(=O)[C@H](CC(C)C)NC(=O)[C@H](CC(C)C)NC(=O)[C@H](CCCCN)NC(=O)[C@@H](N)CCCNC(=N)N)C(=O)N[C@H](CC(C)C)C(N)=O [Composition 12] (HELM PEPTIDE1{R.K.L.L.[O=C([C@H](Cc1ccc([N+](=O)[O-])cc1)N[*:1])[*:2]].I.[dL].[am]}$$$$V2.0) |  | 41 ± 6 |  |
| CC[C@H](C)[C@H](NC(=O)[C@@H](Cc1c[nH]c2ccccc12)NC(=O)[C@H](CC(C)C)NC(=O)[C@H](CC(C)C)NC(=O)[C@H](CCCCN)NC(=O)[C@@H](N)CCCNC(=N)N)C(=O)N[C@H](CC(C)C)C(N)=O [Composition 24] (HELM PEPTIDE1{R.K.L.L.[dW].I.[dL].[am]}$$$$V2.0) | 0.82 (0.56-1.2) mg/kg |  |  |
| 1ATyRKLL(β-thienyl-D--Ala)Il-NH2 |  |  | ED50 (95% confidence limits) (i.v., 11-mers, injected one hour before 58° C. water for 1 minute, paw weight 30 minutes later, Table 1): 0.015 (0.006-0.036) mg/kg |
| CC[C@H](C)[C@H](NC(=O)[C@H](Cc1ccc(OC)cc1)NC(=O)[C@H](CCSC)NC(=O)[C@H](CC(C)C)NC(=O)[C@H](CCCCN)NC(=O)[C@H](CCCNC(=N)N)NC(C)=O)C(=O)N[C@H](CC(C)C)C(N)=O [Composition 18] (Ac-RKLMY(Me)I[dL]-NH2) |  |  | Heat-Edema % Saline Values (dose 2 mg/kg i.v.): 27 ± 1 % Saline Values |
| CC[C@H](C)[C@H](NC(=O)[C@H](Cc1ccc(O)cc1)NC(=O)[C@H](CCSC)NC(=O)[C@H](CC(C)C)NC(=O)[C@H](CCCCN)NC(=O)[C@@H](N)CCCNC(=N)N)C(=O)N[C@H](CC(C)C)C(N)=O [Composition 5] (HELM PEPTIDE1{R.K.L.M.Y.I.[dL].[am]}$$$$V2.0) |  | 70 ± 9 |  |
| CC[C@H](C)[C@H](NC(=O)[C@H](Cc1ccc(I)cc1)NC(=O)[C@H](CC(C)C)NC(=O)[C@H](CC(C)C)NC(=O)[C@H](CCCCN)NC(=O)[C@@H](N)CCCNC(=N)N)C(=O)N[C@H](CC(C)C)C(N)=O [Composition 11] (HELM PEPTIDE1{R.K.L.L.[O=C([C@H](Cc1ccc(I)cc1)N[*:1])[*:2]].I.[dL].[am]}$$$$V2.0) |  | 49 ± 6 |  |
| CC[C@H](C)[C@H](NC(=O)[C@@H](Cc1c[nH]cn1)NC(=O)[C@H](CC(C)C)NC(=O)[C@H](CC(C)C)NC(=O)[C@H](CCCCN)NC(=O)[C@@H](N)CCCNC(=N)N)C(=O)N[C@H](CC(C)C)C(N)=O [Composition 20] (HELM PEPTIDE1{R.K.L.L.[dH].I.[dL].[am]}$$$$V2.0) | 2.3 (1.2-4.2) mg/kg |  |  |
| CC[C@H](C)[C@H](NC(=O)[C@H](Cc1ccc(OC)cc1)NC(=O)[C@H](CCSC)NC(=O)[C@H](CC(C)C)NC(=O)[C@H](CCCCN)NC(=O)[C@@H](CCCCN)NC(C)=O)C(=O)N[C@H](CC(C)C)C(N)=O [Composition 16] (Ac-[dK]KLMY(Me)I[dL]-NH2) |  |  | Heat-Edema % Saline Values (dose 2 mg/kg i.v.): 67 ± 11 % Saline Values; anti-inflammatory activity, result in words: retention of activity |
| CC[C@H](C)[C@H](NC(=O)[C@H](CC(C)C)NC(=O)[C@H](CCSC)NC(=O)[C@H](CC(C)C)NC(=O)[C@H](CCCCN)NC(=O)[C@@H](N)CCCNC(=N)N)C(=O)N[C@H](CC(C)C)C(N)=O [Composition 6] (HELM PEPTIDE1{R.K.L.M.L.I.[dL].[am]}$$$$V2.0) |  | 67 ± 10 |  |
| CC[C@H](C)[C@H](NC(=O)[C@H](Cc1ccc(OC)cc1)NC(=O)[C@@H](NC(=O)[C@H](CC(C)C)NC(=O)[C@H](CCCCN)NC(=O)[C@H](CCCNC(=N)N)NC(C)=O)C(C)C)C(=O)N[C@H](CC(C)C)C(N)=O [Composition 17] (Ac-RKLVY(Me)I[dL]-NH2) |  |  | Heat-Edema % Saline Values (dose 2 mg/kg i.v.): 49 ± 9 % Saline Values; anti-inflammatory activity, result in words: retains activity, albeit at a lower potency |
| CC[C@H](C)[C@H](NC(=O)[C@H](CCCCN)NC(=O)[C@H](CC(C)C)NC(=O)[C@H](CC(C)C)NC(=O)[C@H](CCCCN)NC(=O)[C@@H](N)CCCNC(=N)N)C(=O)N[C@H](CC(C)C)C(N)=O [Composition 8] (HELM PEPTIDE1{R.K.L.L.K.I.[dL].[am]}$$$$V2.0) |  | 38 ± 10 |  |
| CC[C@H](C)[C@H](NC(=O)[C@H](Cc1ccc(Cl)cc1)NC(=O)[C@H](CC(C)C)NC(=O)[C@H](CC(C)C)NC(=O)[C@H](CCCCN)NC(=O)[C@@H](N)CCCNC(=N)N)C(=O)N[C@H](CC(C)C)C(N)=O [Composition 13] (HELM PEPTIDE1{R.K.L.L.[O=C([C@H](Cc1ccc(Cl)cc1)N[*:1])[*:2]].I.[dL].[am]}$$$$V2.0) |  |  | Heat-Edema % Saline Values (dose 5 mg/kg i.v., N.S. = not different from saline, 5 mg/kg): 15 ± 5 % Saline Values and 15 % Saline Values |
| CC[C@H](C)[C@H](NC(=O)[C@@H](CC(C)C)NC(=O)[C@H](CC(C)C)NC(=O)[C@H](CC(C)C)NC(=O)[C@H](CCCCN)NC(=O)[C@@H](N)CCCNC(=N)N)C(=O)N[C@H](CC(C)C)C(N)=O [Composition 23] (HELM PEPTIDE1{R.K.L.L.[dL].I.[dL].[am]}$$$$V2.0) | 1.3 (0.50-3.6) mg/kg |  |  |
| CC[C@H](C)[C@H](NC(=O)[C@@H](CCCCN)NC(=O)[C@H](CC(C)C)NC(=O)[C@H](CC(C)C)NC(=O)[C@H](CCCCN)NC(=O)[C@H](CCCNC(=N)N)NC(C)=O)C(=O)N[C@H](CC(C)C)C(N)=O [Composition 19] (HELM PEPTIDE1{[ac].R.K.L.L.[dK].I.[dL].[am]}$$$$V2.0) |  |  | Heat-Edema % Saline Values (dose 1 mg/kg i.v.): 23 ± 8 % Saline Values |
| CC[C@H](C)[C@H](NC(=O)[C@H](CCCNC(=N)N)NC(=O)[C@H](CC(C)C)NC(=O)[C@H](CC(C)C)NC(=O)[C@H](CCCCN)NC(=O)[C@@H](N)CCCNC(=N)N)C(=O)N[C@H](CC(C)C)C(N)=O [Composition 9] (HELM PEPTIDE1{R.K.L.L.R.I.[dL].[am]}$$$$V2.0) |  | 18 ± 3 |  |
| CC[C@H](C)[C@H](NC(=O)[C@H](Cc1ccc(OC)cc1)NC(=O)[C@H](CCSC)NC(=O)[C@H](CC(C)C)NC(=O)[C@H](CCCCN)NC(=O)[C@H](CCCNC(=N)N)NC(C)=O)C(=O)N[C@@H](C(N)=O)C(C)C [Composition 25] (Ac-RKLMY(Me)I[dV]-NH2) | 1.0 (0.52-1.9) mg/kg |  | anti-inflammatory activity, result in words: retains activity |
| CC[C@H](C)[C@H](NC(=O)[C@H]1CCCN1C(=O)[C@H](CCSC)NC(=O)[C@H](CC(C)C)NC(=O)[C@H](CCCCN)NC(=O)[C@@H](N)CCCNC(=N)N)C(=O)N[C@H](CC(C)C)C(N)=O [Composition 14] (HELM PEPTIDE1{R.K.L.M.[dP].I.[dL].[am]}$$$$V2.0) |  |  | Heat-Edema % Saline Values (dose 2 mg/kg i.v.): 21 ± 3 % Saline Values |
